Laboratory results: patent publication US7642270B2, “5-oxo-5,8-dihydro-pyrido-pyrimidine as inhibitors of c-fms kinase” (Janssen Pharmaceutica N.V., priority 2005, dated 2010)

These compounds were tested against c-fms (Homo sapiens, UniProt P07333) (assay: c-fms autophosphorylation, fluorescence polarization competition immunoassay). Conditions: 10 nM c-fms, 1 mM ATP, 5 mM MgCl2, 45 min room temperature; averages of three independent measurements; read-out: c-fms Autophosphorylation IC50.
Type: biochemical
Protocol: Autophosphorylation, Fluorescence Polarization Competition Immunoassay
The assay buffer used was 100 mM 4-(2-hydroxyethyl)piperazine 1-ethanesulfonic acid (HEPES), pH 7.5, 1 mM 1,4-dithio-DL-threitol (DTT), 0.01% (v/v) Tween-20. Compounds were diluted in assay buffer containing 4% dimethylsulfoxide (DMSO) just prior to the assay. […] The kinase reaction was initiated by adding 2 μL of 5 mM ATP (Sigma) in assay buffer. The final concentrations in the assay were 10 nM c-fms, 1 mM ATP, 5 mM MgCl2, 2% DMSO. Control reactions were ran in each plate: in positive and negative control wells, assay buffer (made 4% in DMSO) was substituted for the compound; in addition, positive control wells received 1.2 μL of 50 mM ethylenediaminetetraaceticacid (EDTA).
The plates were incubated at room temperature for 45 min. At the end of the incubation, the reaction was quenched with 1.2 μL of 50 mM EDTA (EDTA was not added to the positive control wells at this point; see above). Following a 5-min incubation, each well received 10 μL of a 1:1:3 mixture of anti-phosphotyrosine antibody, 10×, PTK green tracer, 10× (vortexed), FP dilution buffer, respectively (all from PanVera, cat. # P2837). The plate was covered, incubated for 30 min at room temperature and the fluorescence polarization was read on the Analyst.
The IC50 values shown in Table 1 are averages of three independent measurements.

Chain of c-fms (P07333 20-972): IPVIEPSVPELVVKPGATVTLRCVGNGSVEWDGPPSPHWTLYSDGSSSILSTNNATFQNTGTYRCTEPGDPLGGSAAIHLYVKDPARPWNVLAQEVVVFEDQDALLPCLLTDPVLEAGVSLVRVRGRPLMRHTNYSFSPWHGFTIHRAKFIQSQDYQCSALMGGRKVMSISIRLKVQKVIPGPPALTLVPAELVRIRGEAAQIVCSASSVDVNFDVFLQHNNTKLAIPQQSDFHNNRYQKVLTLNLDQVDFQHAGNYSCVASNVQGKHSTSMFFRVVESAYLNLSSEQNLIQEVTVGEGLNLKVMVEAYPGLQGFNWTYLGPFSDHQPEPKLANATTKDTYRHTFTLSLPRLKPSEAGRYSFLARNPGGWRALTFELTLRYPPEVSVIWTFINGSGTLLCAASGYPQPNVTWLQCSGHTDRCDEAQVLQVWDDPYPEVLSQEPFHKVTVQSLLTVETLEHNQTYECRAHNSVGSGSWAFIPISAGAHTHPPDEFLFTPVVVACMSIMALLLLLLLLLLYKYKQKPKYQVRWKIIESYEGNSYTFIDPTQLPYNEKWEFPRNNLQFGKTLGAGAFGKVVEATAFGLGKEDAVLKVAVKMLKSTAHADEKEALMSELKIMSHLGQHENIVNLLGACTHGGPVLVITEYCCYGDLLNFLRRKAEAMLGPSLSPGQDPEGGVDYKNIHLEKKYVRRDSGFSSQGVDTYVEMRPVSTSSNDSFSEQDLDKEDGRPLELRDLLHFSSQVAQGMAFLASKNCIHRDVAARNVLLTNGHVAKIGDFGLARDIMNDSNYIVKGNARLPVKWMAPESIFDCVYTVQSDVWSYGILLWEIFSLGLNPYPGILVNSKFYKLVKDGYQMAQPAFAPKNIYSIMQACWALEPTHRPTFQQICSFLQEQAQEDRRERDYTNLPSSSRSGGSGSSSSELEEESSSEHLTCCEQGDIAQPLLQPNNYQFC

Compound	IC50
CCOC(=O)c1cn(-c2ccc3c(c2)CCC3)c2nc(Nc3ccc(N4CCN(C)CC4)cc3)ncc2c1=O [Cpd 1, 8-Indan-5-yl-2-[4-(4-methyl-piperazin-1-yl)-phenylamino]-5-oxo-5,8-dihydro-pyrido[2,3-d]pyrimidine-6-carboxylic acid ethyl ester]	280 nM
CCOC(=O)c1cn(-c2ccc3c(c2)CCC3)c2nc(Nc3ccc(OCC(O)CN(C)C)cc3)ncc2c1=O (stereo not shown) [Cpd 2, 2-[4-(3-Dimethylamino-2-hydroxy-propoxy)-phenylamino]-8-indan-5-yl-5-oxo-5,8-dihydro-pyrido[2,3-d]pyrimidine-6-carboxylic acid ethyl ester]	440 nM
CCOC(=O)c1cn(-c2ccc3c(c2)CCC3)c2nc(Nc3ccc(N4CCOCC4)cc3)ncc2c1=O [Cpd 3, 8-Indan-5-yl-2-(4-morpholin-4-yl-phenylamino)-5-oxo-5,8-dihydro-pyrido[2,3-d]pyrimidine-6-carboxylic acid ethyl ester]	2900 nM
CCOC(=O)c1cn(-c2ccc3c(c2)CCC3)c2nc(Nc3ccc(N(C)C)cc3)ncc2c1=O [Cpd 4, 2-(4-Dimethylamino-phenylamino)-8-indan-5-yl-5-oxo-5,8-dihydro-pyrido[2,3-d]pyrimidine-6-carboxylic acid ethyl ester]	> 10000 nM
CCOC(=O)c1cn(-c2ccc3c(c2)CCC3)c2nc(Nc3cccc(N(C)C)c3)ncc2c1=O [Cpd 5, 2-(3-Dimethylamino-phenylamino)-8-indan-5-yl-5-oxo-5,8-dihydro-pyrido[2,3-d]pyrimidine-6-carboxylic acid ethyl ester]	590 nM
CN1CCN(c2ccc(Nc3ncc4c(=O)c(C(=O)O)cn(-c5ccc6c(c5)CCC6)c4n3)cc2)CC1 [Cpd 6, 8-Indan-5-yl-2-[4-(4-methyl-piperazin-1-yl)-phenylamino]-5-oxo-5,8-dihydro-pyrido[2,3-d]pyrimidine-6-carboxylic acid]	1100 nM
CCNC(=O)c1cn(-c2ccc3c(c2)CCC3)c2nc(Nc3ccc(N4CCN(C)CC4)cc3)ncc2c1=O [Cpd 9, 8-indan-5-yl-2-[4-(4-methyl-piperazin-1-yl)-phenylamino]-5-oxo-5,8-dihydro-pyrido[2,3-d]pyrimidine-6-carboxylic acid ethylamide]	68 nM
CCNC(=O)c1cn(-c2ccc3c(c2)CCC3)c2nc(Nc3ccc(OCC(O)CN(C)C)cc3)ncc2c1=O (stereo not shown) [Cpd 12, 2-[4-(3-Dimethylamino-2-hydroxy-propoxy)-phenylamino]-8-indan-5-yl-5-oxo-5,8-dihydro-pyrido[2,3-d]pyrimidine-6-carboxylic acid ethylamide]	77 nM
CN1CCN(c2ccc(Nc3ncc4c(=O)c(C(N)=O)cn(-c5ccccc5)c4n3)cc2)CC1 [Cpd 13, 2-[4-(4-Methyl-piperazin-1-yl)-phenylamino]-5-oxo-8-phenyl-5,8-dihydro-pyrido[2,3-d]pyrimidine-6-carboxylic acid amide]	730 nM
CN(C)c1ccc(Nc2ncc3c(=O)c(C(N)=O)cn(-c4ccc5c(c4)CCC5)c3n2)cc1 [Cpd 15, 2-(4-Dimethylamino-phenylamino)-8-indan-5-yl-5-oxo-5,8-dihydro-pyrido[2,3-d]pyrimidine-6-carboxylic acid amide]	70 nM
CCOC(=O)c1cn(C2CCCCC2)c2nc(Nc3ccc(N4CCN(C)CC4)cc3)ncc2c1=O [Cpd 17, 8-Cyclohexyl-2-[4-(4-methyl-piperazin-1-yl)-phenylamino]-5-oxo-5,8-dihydro-pyrido[2,3-d]pyrimidine-6-carboxylic acid ethyl ester]	1700 nM
CN1CCN(c2ccc(Nc3ncc4c(=O)c(C(N)=O)cn(C5CCCC5)c4n3)cc2)CC1 [Cpd 19, 8-Cyclopentyl-2-[4-(4-methyl-piperazin-1-yl)-phenylamino]-5-oxo-5,8-dihydro-pyrido[2,3-d]pyrimidine-6-carboxylic acid amide]	56 nM
CN1CCN(c2ccc(Nc3ncc4c(=O)c(C(N)=O)cn(-c5ccc6c(c5)CCC6)c4n3)c(O)c2)CC1 [Cpd 25, 2-[2-Hydroxy-4-(4-methyl-piperazin-1-yl)-phenylamino]-8-indan-5-yl-5-oxo-5,8-dihydro-pyrido[2,3-d]pyrimidine-6-carboxylic acid amide]	93 nM
CN1CCN(c2ccc(Nc3cc4c(cn3)c(=O)c(C(N)=O)cn4-c3ccc4c(c3)CCC4)cc2)CC1 [Cpd 26, 1-Indan-5-yl-7-[4-(4-methyl-piperazin-1-yl)-phenylamino]-4-oxo-1,4-dihydro-[1,6]naphthyridine-3-carboxylic acid amide]	56 nM
CCNC(=O)c1cn(-c2ccc3c(c2)CCC3)c2nc(Nc3ccc(CCN4CCOCC4)cc3)ncc2c1=O [Cpd 29, 8-Indan-5-yl-2-[4-(2-morpholin-4-yl-ethyl)-phenylamino]-5-oxo-5,8-dihydro-pyrido[2,3-d]pyrimidine-6-carboxylic acid ethyl amide]	33 nM
CCNC(=O)c1cn(-c2ccc3c(c2)CCC3)c2nc(Nc3ccc(C[C@H]4COC(=O)N4)cc3)ncc2c1=O [Cpd 32, (4S)-8-Indan-5-yl-5-oxo-2-[4-(2-oxo-oxazolidin-4-ylmethyl)-phenylamino]-5,8-dihydro-pyrido[2,3-d]pyrimidine-6-carboxylic acid ethyl amide]	33 nM
CNC(=O)c1cn(-c2ccc3c(c2)CCC3)c2nc(Nc3ccc(CCS(=O)(=O)NC(C)C)cc3)ncc2c1=O [Cpd 33, 8-Indan-5-yl-2-[4-(2-isopropylsulfamoyl-ethyl)-phenylamino]-5-oxo-5,8-dihydro-pyrido[2,3-d]pyrimidine-6-carboxylic acid methyl amide]	100 nM
CCNC(=O)c1cn(-c2ccc3c(c2)CCC3)c2nc(Nc3ccc(CCS(=O)(=O)NC(C)C)cc3)ncc2c1=O [Cpd 34, 8-Indan-5-yl-2-[4-(2-isopropylsulfamoyl-ethyl)-phenylamino]-5-oxo-5,8-dihydro-pyrido[2,3-d]pyrimidine-6-carboxylic acid ethyl amide]	> 1000 nM
CNC(=O)c1cn(-c2ccc3c(c2)CCC3)c2nc(Nc3ccc(CCS(=O)(=O)N4CCOCC4)cc3)ncc2c1=O [Cpd 35, 8-Indan-5-yl-2-{4-[2-(morpholine-4-sulfonyl)-ethyl]-phenylamino}-5-oxo-5,8-dihydro-pyrido[2,3-d]pyrimidine-6-carboxylic acid methyl amide]	80 nM

Now those with a lower IC50, led by results:

IC50	Compound
31 nM	CNC(=O)c1cn(-c2ccc3c(c2)CCC3)c2nc(Nc3ccc(N4CCN(C)CC4)cc3)ncc2c1=O [Cpd 8, 8-indan-5-yl-2-[4-(4-methyl-piperazin-1-yl)-phenylamino]-5-oxo-5,8-dihydro-pyrido[2,3-d]pyrimidine-6-carboxylic acid methylamide]
19 nM	NC(=O)c1cn(-c2ccc3c(c2)CCC3)c2nc(Nc3ccc(N4CCOCC4)cc3)ncc2c1=O [Cpd 14, 8-indan-5-yl-2-(4-morpholin-4-yl-phenylamino)-5-oxo-5,8-dihydro-pyrido[2,3-d]pyrimidine-6-carboxylic acid amide]
18 nM	NC(=O)c1cn(-c2ccc3c(c2)CCC3)c2nc(Nc3cccc(CN4CCOCC4)c3)ncc2c1=O [Cpd 24, 8-Indan-5-yl-2-(3-morpholin-4-ylmethyl-phenylamino)-5-oxo-5,8-dihydro-pyrido[2,3-d]pyrimidine-6-carboxylic acid amide]
10 nM	NC(=O)c1cn(-c2ccc3c(c2)CCC3)c2nc(Nc3ccc(CCN4CCOCC4)cc3)ncc2c1=O [Cpd 27, 8-Indan-5-yl-2-[4-(2-morpholin-4-yl-ethyl)-phenylamino]-5-oxo-5,8-dihydro-pyrido[2,3-d]pyrimidine-6-carboxylic acid amide]
12 nM	NC(=O)c1cn(-c2ccc3c(c2)CCC3)c2nc(Nc3ccc(C[C@H]4COC(=O)N4)cc3)ncc2c1=O [Cpd 30, (4S)-8-Indan-5-yl-5-oxo-2-[4-(2-oxo-oxazolidin-4-ylmethyl)-phenylamino]-5,8-dihydro-pyrido[2,3-d]pyrimidine-6-carboxylic acid amide]
20 nM	CNC(=O)c1cn(-c2ccc3c(c2)CCC3)c2nc(Nc3ccc(C[C@H]4COC(=O)N4)cc3)ncc2c1=O [Cpd 31, (4S)-8-Indan-5-yl-5-oxo-2-[4-(2-oxo-oxazolidin-4-ylmethyl)-phenylamino]-5,8-dihydro-pyrido[2,3-d]pyrimidine-6-carboxylic acid methyl amide]
8 nM	CN1CCN(c2cccc(Nc3ncc4c(=O)c(C(N)=O)cn(-c5ccc6c(c5)CCC6)c4n3)c2)CC1 [Cpd 37, 8-Indan-5-yl-2-[3-(4-methyl-piperazin-1-yl)-phenylamino]-5-oxo-5,8-dihydro-pyrido[2,3-d]pyrimidine-6-carboxylic acid amide]
9 nM	CNC(=O)c1cn(-c2ccc3c(c2)CCC3)c2nc(Nc3cccc(N4CCN(C)CC4)c3)ncc2c1=O [Cpd 38, 8-indan-5-yl-2-[3-(4-methyl-piperazin-1-yl)-phenylamino]-5-oxo-5,8-dihydro-pyrido[2,3-d]pyrimidine-6-carboxylic acid methyl amide]
13 nM	CCNC(=O)c1cn(-c2ccc3c(c2)CCC3)c2nc(Nc3cccc(N4CCN(C)CC4)c3)ncc2c1=O [Cpd 39, 8-Indan-5-yl-2-[3-(4-methyl-piperazin-1-yl)-phenylamino]-5-oxo-5,8-dihydro-pyrido[2,3-d]pyrimidine-6-carboxylic acid ethyl amide]
